# Assay results reported in patent US10183063B2, “Injection composition comprising hyaluronidase for removal of topical fat” (priority 2016, dated 2019).
# Columns and labels:
# [1] = system: topical fat; format: in vivo, human
# Text: In order to find the optimal doses of hyaluronidase facilitating lipolysis, the present inventor conducted experiments with hyaluronidase unit doses of 10 IU, 50 IU, 100 IU, 150 IU, 200 IU, 250 IU, 300 IU, 350 IU, 400 IU, 450 IU, 500 IU, 550 IU, 600 IU, 650 IU, 700 IU, 750 IU, 800 IU, 850 IU, 900 IU, 950 IU, 1000 IU, 1050 IU, 1100 IU, 1150 IU, 1200 IU, 1250 IU, 1300 IU, 1350 IU, 1400 IU, 1450 IU, and 1500 IU.
# It was shown in clinical trials that at the above dose range, if the injection composition is administered in a volume of 1 cc containing 300 IU of hyaluronidase, the diameter of the diffusion range is about 1 cm. Thus, with the hyaluronidase dose set at 300 IU to 600 IU, by injecting the composition at a volume of 0.5 to 2 cc depending on the hyaluronidase dose and at injection points with an interval of 0.5 to 1.5 cm between the injection points, injection at narrow intervals is possible and consequently, lipolysis occurs evenly. Furthermore, a lifting effect occurs concomitantly where skin resilience is improved by the promotion of collagen production through stimulation of the skin by the injection needle.
# Thus, by administering an injection composition of the present invention having the above compositional ranges, the side effects from using the drugs are minimized and fat removal over a wide area can be carried out using a minimal volume.
# It was shown in clinical trials that at a hyaluronidase of 300 IU, the diameter of the diffusion range for the injection composition is about 1 cm. Thus, by injecting the composition at narrow intervals between injection points of 0.5 to 2 cm, even fat removal as well as collagen production by skin stimulation can be facilitated.
Compound,"time until the onset of action for the local anesthetic effect, later compared to lidocaine",Lipolysis ([1]; unit dose 300 IU or below),Fat removal ([1]; unit dose above 600 IU),Fat removal effect and side effects ([1]; unit dose of 300 IU to 600 IU),minimum amount of hyaluronidase exhibiting efficacy ([1]; unit dose per injection) [IU]
CCN(CC)CCOC(=O)c1ccc(N)cc1 [procaine],more than 10 minutes,–,–,–,–
hyaluronidase,–,sufficient lipolysis did not occur,excellent effects were obtained in terms of fat removal,possible to ensure the fat removal effect while minimizing side effects,300
